Laboratory results: PMC5146284, “Molecular imaging with engineered physiology” (Nature Communications, 2016)
Read-outs that look alike come from different tables or passages of the source. Positions of bridges follow the written chain, without caps; N, C: chain ends. No end group written: not given here. *: point of attachment. long‑chain biotin = O=C(CCCC[C@@H]1SC[C@@H]2NC(=O)N[C@@H]21)NCCCCCC(=O)*; cfSGFP2 = cysteine-free variant of the GFP

Columns and labels:
[1] = target: T1, RAMP1/CLR CGRP receptor heterodimer in HEK293FT reporter cells (Homo sapiens, UniProt O60894+Q16602); experiment: Luminescent cAMP (GloSensor) cell-based bioassay for CGRP receptor activation; details: for Log(EC50), Cleaved: after protease: (1) 5 ng/μl human FAP, (2) 0.1 U/μl TEV, (3) 2 pg/μl EK light chain, (4) 23 ng/μl, (5) 11.5 ng/μl human CASP3; for Log(EC50), Cleaved / Log(EC50), Uncleaved: s.e.m. <0.1 (n=7); for Log(EC50), Uncleaved: incubated without protease
T1 construct: HA-CALCRL: Human calcitonin receptor-like receptor preceded by the H. influenza; Human receptor-activity modifying protein 1 preceded by the H. influenza; hemagglutinin signal peptide (heterologous, replaces the native one) (N); expressed in transfected cells
T1 sequence (Q16602 23-461): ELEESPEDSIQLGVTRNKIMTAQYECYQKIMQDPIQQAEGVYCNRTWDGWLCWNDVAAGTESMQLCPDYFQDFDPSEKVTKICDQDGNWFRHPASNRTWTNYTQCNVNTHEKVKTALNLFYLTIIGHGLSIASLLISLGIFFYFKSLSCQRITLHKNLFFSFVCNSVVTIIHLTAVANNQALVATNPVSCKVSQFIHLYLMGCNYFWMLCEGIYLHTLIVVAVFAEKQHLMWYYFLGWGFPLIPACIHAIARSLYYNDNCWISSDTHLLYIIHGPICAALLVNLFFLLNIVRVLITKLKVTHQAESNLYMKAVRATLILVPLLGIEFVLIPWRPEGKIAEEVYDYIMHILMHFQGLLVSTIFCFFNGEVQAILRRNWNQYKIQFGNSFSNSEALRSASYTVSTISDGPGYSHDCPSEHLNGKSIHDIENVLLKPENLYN
T1 sequence (O60894 27-148): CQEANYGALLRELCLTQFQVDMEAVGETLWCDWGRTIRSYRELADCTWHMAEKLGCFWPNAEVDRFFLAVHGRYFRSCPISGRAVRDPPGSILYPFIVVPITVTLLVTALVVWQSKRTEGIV

caspase-3 (CASP3) = experiment: Proteolytic cleavage by caspase-3 (SDS-PAGE or MALDI); type: biochemical, human; details: 10 µM sensor, 2 h, 37 °C; SDS-PAGE (sensor 4) or MALDI (sensor 5)
Procedure: Proteolytic cleavage reactions
Supplementary Fig. 4. Proteolytic cleavage of candidate sensors and assessment by bioas-say. (a-e) Cleavage reaction products after incubation of 10 µM sensor with or without enzyme for 2 h at 37 °C. (a) MALDI mass spectrum of sensor (1) after incubation with or without FAP […]
(b) SDS-PAGE analysis of sensor
(c) SDS-PAGE analysis of sensor (3) after incubation with different concentrations of EK light […]
(d) SDS-PAGE analysis of sen- […]
and liberation of free CGRP. (f-k) Dose-response curves of uncleaved and cleaved sensors in […]
(f) Dose-response curves for Sensors (2-4) at final assay concentrations up to 10 uM (addition of 10 µL of 100 µM solution to 90 µL medium per well in bioassay) show no receptor activation by uncleaved GFP-linker-CGRP-G sensors even at 10-fold higher concentrations than were used in cleavage assays (g-k). (g-k) Dose-response curves for reaction products from (a-e). Error bars in (f-k) denote SD of measurements performed in triplicate.
(1 picture or pasted object on this page, not shown here)

[2] = system: CASP3, in rat brain (thalamus); details: for significant haemodynamic activation / voxel correlation with vs without CASP3: 100 nM sensor, BOLD MRI
Procedure: CASP3 sensor aliquots (100 nM) were injected at 0.1 μl min^−1 for 10 min in the presence or absence of CASP3 enzyme (2.3 ng μl^−1) in paired injections into rat thalamus.
High resolution T2-weighted anatomical scans of each animal were obtained using a rapid acquisition with relaxation enhancement (RARE) pulse sequence with echo time (TE)=44 ms, recycle time (TR)=2,500 ms, RARE factor=8, spatial resolution=100 × 100 × 500 μm, and matrix size=128 × 128 with seven slices. Haemodynamic contrast image series were acquired using a gradient echo echo planar imaging (EPI) pulse sequence with TE=34 ms, TR=4,000 ms, spatial resolution=300 × 300 × 500 μm, and matrix size=64 × 64 with seven slices. To parallel the optical imaging experiments, 5 min of baseline measurement with 4 s per image were acquired before probe infusion. Following this baseline period, while continuously collecting EPI scans, infusion pumps were remotely turned on to commence intracranial injection (in the parenchymal tissue) of 1 μl aliquots of CGRP or control solutions at the rate of 0.1 μl min^−1 through the cannulae. […] For the experiments of Fig. 3d, CGRP-based CASP3 sensors (100 nM) were co-injected simultaneously, either with or without comixed CASP3 enzyme (1.15 ng μl^−1).
MRI data was processed and analysed using the AFNI software package[47]. The AFNI 3dAllineate command was used to align each animal's EPI data set to the corresponding RARE anatomical image. Each animal's image data were then aligned to a reference MRI rat atlas[48]. To identify voxels with significant increases or decreases in BOLD signal, we used the 3dDeconvolve routines in AFNI to correlate individual or group level voxel-level signal changes with the injection epochs. For correlation analysis, injection epochs were modeled by ‘box car' regressors with a single stimulus block synchronized with the onset and offset of infusion, without delays. […] The cluster size and P value threshold were objectively chosen, based on AFNI's AlphaSim routine, to provide a type I error rate of 5% after correction for multiple comparisons[49][50]; this was appropriate for robust hypothesis testing on individual voxels throughout the entire imaging volume. […] Time courses were obtained by averaging MRI signal over 1.5 × 1.5 mm regions of interest defined around cannula tip locations in individual animals' data sets. The peak percent signal change was determined by comparing signal values during baseline and infusion conditions. Additional statistical analysis was performed in Matlab.

[3] = system: rat brain (thalamus); nNOS; experiment: MRI of CGRP response before and after systemic nNOS inhibition with L-NAME; type: in vivo, rat (Sprague-Dawley)
Procedure: (e) Dissociation of CGRP-induced artificial haemodynamic signals from nitric oxide-mediated signalling. Left, haemodynamic responses observed by imaging upon unilateral CGRP injection into the left thalamus, before L-NAME delivery (-LN, top), or into the right thalamus, after 50 mg kg^−1 intravenous L-NAME infusion (+LN, bottom). […] Error bars throughout this figure denote s.e.m. values (n=4).
High resolution T2-weighted anatomical scans of each animal were obtained using a rapid acquisition with relaxation enhancement (RARE) pulse sequence with echo time (TE)=44 ms, recycle time (TR)=2,500 ms, RARE factor=8, spatial resolution=100 × 100 × 500 μm, and matrix size=128 × 128 with seven slices. Haemodynamic contrast image series were acquired using a gradient echo echo planar imaging (EPI) pulse sequence with TE=34 ms, TR=4,000 ms, spatial resolution=300 × 300 × 500 μm, and matrix size=64 × 64 with seven slices. To parallel the optical imaging experiments, 5 min of baseline measurement with 4 s per image were acquired before probe infusion. Following this baseline period, while continuously collecting EPI scans, infusion pumps were remotely turned on to commence intracranial injection (in the parenchymal tissue) of 1 μl aliquots of CGRP or control solutions at the rate of 0.1 μl min^−1 through the cannulae. […]
MRI data was processed and analysed using the AFNI software package[47]. […]

For “cfSGFP2-ENLYFQG-CGRP-G (cfSGFP2-GGSGENLYFQGACDTATCVTHRLAGLLSRSGGVVKNNFVPTNVGSKAFG; ends and bridges not checked; also: StrepII tag, position not given here) [Sensor (2), recombinant fusion of cysteine-free GFP, a short linker, TEV protease site and non-amidated CGRP]”, the “Log(EC50), Cleaved” value [1] was −6.0 and the “Log(EC50), Uncleaved” value [1] was <−5.
“(long-chain biotin)-SG-DEVD-CGRP-amide (disulfide) ({long‑chain biotin}-SGDEVDACDTATCVTHRLAGLLSRSGGVVKNNFVPTNVGSKAF-NH2; disulfide 8-13) [Sensor (5)]” gave an EC50 ([1]; after CASP3 cleavage, 95% CI, read-out: CI of EC50 following cleavage) of 0.038 to 0.046 nM, an EC50 ([1]; uncleaved CASP3 sensor, 95% CI, read-out: CI of EC50 before cleavage) of 5.2 to 6.4 nM and an EC50 ([1]; uncleaved CASP3 sensor, read-out: EC50 before cleavage) of 5.7 nM.
With “(long-chain biotin)-SG-DEVD-CGRP-amide (disulfide) [Sensor (5)]” the “cleavage by caspase-3” value (caspase-3 (CASP3)) was “complete cleavage”, the “peak MRI signal change in the absence of CASP3” value ([2]; 100 nM sensor alone, 0.1 μl/min, 10 min, n=4) was 1.6±0.5% and the “mean MRI peak signal change, sensor/CASP3 co-injection” value ([2]; 100 nM sensor with CASP3, 0.1 μl/min, 10 min, n=4, P=0.02) was 7.0±0.9%. The “significant haemodynamic activation / voxel correlation with vs without CASP3” value ([2]; corrected t-test P<0.05, listed as CASP3 sensor) was “observed in the presence but not the absence of the co-injected protease”, the “significant haemodynamic activation / voxel correlation with vs without CASP3” value ([2]; corrected t-test P<0.05, listed as CGRP-based molecular imaging probe (5)) was “Significant haemodynamic activation can be seen in the presence but not the absence of coadministered 1.15 ng μl^−1 CASP3” and the “protease sensitivity and post-cleavage potency, ranking” value ([1]; comparison of sensors) was “optimum protease sensitivity and post-cleavage potency”.
COC(=O)[C@@H](N)CCCNC(N)=N[N+](=O)[O-] [L-NAME, N-nitro-L-arginine methyl ester] was tested, and the “average increase in baseline brain MRI signal before CGRP infusion” value ([3]; 50 mg/kg i.v., t-test P=0.11, n=4, not significant) was 3.5±2.3% and the “increase in baseline MRI signal after L-NAME (review reply)” value ([3]; during first five minutes after L-NAME injection, n=4) was < 5%.
In the case of “cfSGFP2-DEVD-CGRP-G (cfSGFP2-GGSGDEVDACDTATCVTHRLAGLLSRSGGVVKNNFVPTNVGSKAFG; ends and bridges not checked; also: StrepII tag, position not given here) [Sensor (4), recombinant fusion of cysteine-free GFP, a short linker, caspase-3 site and non-amidated CGRP]”, the “Log(EC50), Cleaved” value [1] is reported as −6.4 and the “Log(EC50), Uncleaved” value [1] is reported as <−5.
“cfSGFP2-DDDDK-CGRP-G (cfSGFP2-GGSGDDDDKACDTATCVTHRLAGLLSRSGGVVKNNFVPTNVGSKAFG; ends and bridges not checked; also: StrepII tag, position not given here) [Sensor (3), recombinant fusion of cysteine-free GFP, a short linker, enterokinase site and non-amidated CGRP]” was tested, and the “Log(EC50), Cleaved” value [1] was −6.4 and the “Log(EC50), Uncleaved” value [1] was <−5.
CC(C)C[C@H](NC(=O)CNC(=O)[C@H](C)NC(=O)[C@H](CC(C)C)NC(=O)[C@H](CCCNC(=N)N)NC(=O)[C@H](Cc1c[nH]cn1)NC(=O)[C@@H](NC(=O)[C@@H](NC(=O)[C@@H]1CSSC[C@H](NC(=O)[C@H](C)N)C(=O)N[C@@H](CC(=O)O)C(=O)N[C@@H]([C@@H](C)O)C(=O)N[C@@H](C)C(=O)N[C@@H]([C@@H](C)O)C(=O)N1)C(C)C)[C@@H](C)O)C(=O)N[C@@H](CC(C)C)C(=O)N[C@@H](CO)C(=O)N[C@@H](CCCNC(=N)N)C(=O)N[C@@H](CO)C(=O)NCC(=O)NCC(=O)N[C@H](C(=O)N[C@H](C(=O)N[C@@H](CCCCN)C(=O)N[C@@H](CC(N)=O)C(=O)N[C@@H](CC(N)=O)C(=O)N[C@@H](Cc1ccccc1)C(=O)N[C@H](C(=O)N1CCC[C@H]1C(=O)N[C@H](C(=O)N[C@@H](CC(N)=O)C(=O)N[C@H](C(=O)NCC(=O)N[C@@H](CO)C(=O)N[C@@H](CCCCN)C(=O)N[C@@H](C)C(=O)N[C@@H](Cc1ccccc1)C(=O)NCC(=O)O)C(C)C)[C@@H](C)O)C(C)C)C(C)C)C(C)C [CGRP-G] showed an EC50 ([1]; C-terminal glycine extension, read-out: 95% CI of EC50 for receptor activation) of 2.1 to 3.1 nM and an EC50 ([1]; C-terminal glycine extension, read-out: EC50 for receptor activation) of 2.5 nM.
With “cfSGFP2-DEVD-CGRP-G [Sensor (4), recombinant fusion of cysteine-free GFP, a short linker, caspase-3 site and non-amidated CGRP]” the “cleavage by caspase-3” value (caspase-3 (CASP3)) was “near-complete”.
CC(C)C[C@H](NC(=O)CNC(=O)[C@H](C)NC(=O)[C@H](CC(C)C)NC(=O)[C@H](CCCNC(=N)N)NC(=O)[C@H](Cc1c[nH]cn1)NC(=O)[C@@H](NC(=O)[C@@H](NC(=O)[C@@H]1CSSC[C@H](NC(=O)[C@H](C)NC(=O)[C@@H]2CCCN2C(=O)[C@H](C)N)C(=O)N[C@@H](CC(=O)O)C(=O)N[C@@H]([C@@H](C)O)C(=O)N[C@@H](C)C(=O)N[C@@H]([C@@H](C)O)C(=O)N1)C(C)C)[C@@H](C)O)C(=O)N[C@@H](CC(C)C)C(=O)N[C@@H](CO)C(=O)N[C@@H](CCCNC(=N)N)C(=O)N[C@@H](CO)C(=O)NCC(=O)NCC(=O)N[C@H](C(=O)N[C@H](C(=O)N[C@@H](CCCCN)C(=O)N[C@@H](CC(N)=O)C(=O)N[C@@H](CC(N)=O)C(=O)N[C@@H](Cc1ccccc1)C(=O)N[C@H](C(=O)N1CCC[C@H]1C(=O)N[C@H](C(=O)N[C@@H](CC(N)=O)C(=O)N[C@H](C(=O)NCC(=O)N[C@@H](CO)C(=O)N[C@@H](CCCCN)C(=O)N[C@@H](C)C(=O)N[C@@H](Cc1ccccc1)C(N)=O)C(C)C)[C@@H](C)O)C(C)C)C(C)C)C(C)C [Sensor (1)] was tested, and the EC50 ([1]; after FAP cleavage, 95% CI, read-out: CI of EC50 following cleavage) was 0.013 to 0.02 nM, the EC50 ([1]; uncleaved FAP sensor, 95% CI, read-out: CI of EC50 before cleavage) was 0.112 to 0.116 nM and the EC50 ([1]; uncleaved FAP sensor, read-out: EC50 before cleavage) was 0.114 nM.
